Experimental data from ChEMBL document CHEMBL2417373, “Substituted tetrahydroisoquinolines as selective antagonists for the orexin 1 receptor” (J Med Chem, 2013).
Calls of active or inactive are those of the source. The calls are words filed in the database; no cut-off is given here.

Columns and labels:
[1] = biological target: T1, Orexin receptor type 2 (Homo sapiens) (UniProt O43614); experiment: Antagonist activity at OX2 receptor (unknown origin) expressed in RD-HGA16 cells assessed as inhibition orexin A-induced calcium mobilization at 10 uM by fluorescence assay; format: functional, cell-based
T1 sequence (whole entry): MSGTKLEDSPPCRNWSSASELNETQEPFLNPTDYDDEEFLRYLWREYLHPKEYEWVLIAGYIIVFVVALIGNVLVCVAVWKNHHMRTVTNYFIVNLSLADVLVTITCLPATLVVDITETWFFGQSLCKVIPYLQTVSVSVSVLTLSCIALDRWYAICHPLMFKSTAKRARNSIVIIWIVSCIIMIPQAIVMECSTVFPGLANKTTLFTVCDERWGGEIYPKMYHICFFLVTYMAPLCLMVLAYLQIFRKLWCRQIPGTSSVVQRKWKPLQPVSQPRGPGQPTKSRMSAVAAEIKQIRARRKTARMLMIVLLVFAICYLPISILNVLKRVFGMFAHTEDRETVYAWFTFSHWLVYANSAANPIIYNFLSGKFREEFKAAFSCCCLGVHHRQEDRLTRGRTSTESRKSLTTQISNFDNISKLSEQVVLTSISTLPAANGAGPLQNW

[2] = biological target: T2, Orexin/Hypocretin receptor type 1 (Homo sapiens) (UniProt O43613); experiment: Antagonist activity at OX1 receptor (unknown origin) expressed in RD-HGA16 cells assessed as inhibition orexin A-induced calcium mobilization by fluorescence assay; format: functional, cell-based
T2 sequence (whole entry): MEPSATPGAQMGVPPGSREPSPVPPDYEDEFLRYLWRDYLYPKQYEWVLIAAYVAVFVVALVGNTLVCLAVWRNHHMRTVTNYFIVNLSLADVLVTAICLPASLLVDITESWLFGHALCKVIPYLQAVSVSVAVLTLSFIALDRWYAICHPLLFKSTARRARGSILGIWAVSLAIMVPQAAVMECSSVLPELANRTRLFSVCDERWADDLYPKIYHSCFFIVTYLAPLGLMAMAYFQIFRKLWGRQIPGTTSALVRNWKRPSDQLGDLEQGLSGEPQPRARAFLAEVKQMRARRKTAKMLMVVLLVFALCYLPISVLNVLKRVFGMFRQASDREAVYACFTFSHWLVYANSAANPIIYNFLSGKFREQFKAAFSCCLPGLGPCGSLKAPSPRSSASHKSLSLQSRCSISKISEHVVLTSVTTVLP

[3] = biological target: T2, Orexin/Hypocretin receptor type 1 (Homo sapiens); experiment: Agonist activity at OX1 receptor (unknown origin) expressed in RD-HGA16 cells assessed as calcium mobilization at 10 uM by fluorescence assay; format: functional, cell-based
[4] = species: Homo sapiens; experiment: Selectivity ratio of Ke for OX2 receptor (unknown origin) to Ke for OX1 receptor (unknown origin)

| Structure (SMILES) | inhibition [1] [%] | Ke(app) [2] [nM] | Activity [3] | Ratio [4] |
| --- | --- | --- | --- | --- |
| COc1ccc(CC2c3cc(OC)c(OC)cc3CCN2CC(=O)N[C@@H](C)c2ccccc2)cc1OC (single isomer, unassigned; diastereomer 1) | < 30 | > 10000 | – | – |
| COc1ccc(CC2c3cc(OC)c(OC)cc3CCN2CC(=O)NCCCc2ccccc2)cc1OC (stereo unspecified) | < 30 | 2370 | – | – |
| COc1ccc(CC2c3cc(OC)c(OC)cc3CCN2CC(=O)Nc2ccc(-c3ccccc3)cc2)cc1OC (stereo unspecified) | < 30 | 2240 | – | – |
| COc1ccc(CC2c3cc(OC)c(OC)cc3CCN2CC(=O)NCc2ccccn2)cc1OC (stereo unspecified) | – | 261 | inactive | – |
| COc1ccc(CC2c3cc(OC)c(OC)cc3CCN2CC(=O)Nc2cccc(-c3ccccc3)c2)cc1OC (stereo unspecified) | < 30 | 8980 | – | – |
| COc1ccc(CC2c3cc(OS(=O)(=O)c4ccc(C)cc4)c(OC)cc3CCN2CC(=O)NCc2ccccc2)cc1OC (stereo unspecified) | < 30 | 118 | inactive | – |
| COc1ccc(CC2c3cc(OCc4ccccc4)c(OC)cc3CCN2CC(=O)NCc2ccccc2)cc1OC (stereo unspecified) | < 30 | 402 | inactive | – |
| CCCOc1cc2c(cc1OC)CCN(CC(=O)NCc1cccnc1)C2Cc1ccc(OC)c(OC)c1 (stereo unspecified) | – | 41.9 | inactive | – |
| COc1ccc(CC2c3cc(OC)c(OC)cc3CCN2CC(=O)N2CCC(c3ccccc3)CC2)cc1OC (stereo unspecified) | < 30 | > 10000 | – | – |
| COc1ccc(CC2c3cc(OC)c(OC)cc3CCN2CC(=O)NCC(N)=O)cc1OC (stereo unspecified) | < 30 | > 10000 | – | – |
| COc1ccc(CC2c3cc(OCC(F)(F)F)c(OC)cc3CCN2CC(=O)NCc2ccccc2)cc1OC (stereo unspecified) | – | 9.4 | inactive | – |
| CCOc1cc2c(cc1OC)CCN(CC(=O)NCc1cccnc1)C2Cc1ccc(OC)c(OC)c1 (stereo unspecified) | – | 15.7 | inactive | – |
| COc1ccc(CC2c3cc(OCCN(C)C)c(OC)cc3CCN2CC(=O)NCc2ccccc2)cc1OC (stereo unspecified) | < 30 | 4740 | – | – |
| CCOc1cc2c(cc1OC)CCN(CC(=O)NCc1ccccn1)C2Cc1ccc(OC)c(OC)c1 (stereo unspecified) | – | 87.4 | inactive | – |
| COc1ccc(CC2c3cc(OC)c(OC)cc3CCN2CC(=O)N2CCc3ccccc3C2)cc1OC (stereo unspecified) | – | 3030 | – | 3 |
| COc1ccc(CC2c3cc(OCC(F)(F)F)c(OC)cc3CCN2CC(=O)NCc2ccccn2)cc1OC (stereo unspecified) | – | 22.5 | inactive | – |
| CCCCCCOc1cc2c(cc1OC)CCN(CC(=O)NCc1ccccc1)C2Cc1ccc(OC)c(OC)c1 (stereo unspecified) | – | 315 | inactive | – |
| COc1ccc(CC2c3cc(OC)c(OC)cc3CCN2CC(=O)OCc2ccccc2)cc1OC (stereo unspecified) | < 30 | > 10000 | – | – |
| COc1ccc(CC2c3cc(OCCCCOc4ccccc4)c(OC)cc3CCN2CC(=O)NCc2ccccc2)cc1OC (stereo unspecified) | – | 43.5 | inactive | – |
| CCOc1cc2c(cc1OC)CCN(CC(=O)NCc1ccccc1)C2Cc1ccc(OC)c(OC)c1 (stereo unspecified) | – | 30 | inactive | – |
| COc1cc2c(cc1O)C(Cc1ccc(OC)c(OC)c1)N(CC(=O)NCc1ccccc1)CC2 (stereo unspecified) | – | 1530 | – | 3.8 |
| COc1ccc(CC2c3cc(OCCN4CCCCC4)c(OC)cc3CCN2CC(=O)NCc2ccccc2)cc1OC (stereo unspecified) | < 30 | 8040 | – | – |
| COc1ccc(CC2c3cc(OC)c(OC)cc3CCN2CC(=O)NCc2ccccc2)cc1OC (stereo unspecified) | – | 199 | inactive | – |
| CNC(=O)CNC(=O)CN1CCc2cc(OC)c(OC)cc2C1Cc1ccc(OC)c(OC)c1 (stereo unspecified) | < 30 | 7640 | – | – |
| COc1ccc(CC2c3cc(OC)c(OC)cc3CCN2CC(=O)Nc2ccnc3c(F)cccc23)cc1OC (stereo unspecified) | < 30 | 4220 | – | – |

| Structure (SMILES) | inhibition [1] [%] | Ke(app) [2] [nM] | Activity [3] | Ratio [4] |
| --- | --- | --- | --- | --- |
| COc1ccc(CC2c3cc(OC)c(OC)cc3CCN2CC(=O)NC2CC(C)Nc3ccccc32)cc1OC (stereo unspecified) | < 30 | 7170 | – | – |
| COc1ccc(CC2c3cc(OS(C)(=O)=O)c(OC)cc3CCN2CC(=O)NCc2ccccc2)cc1OC (stereo unspecified) | – | 7.3 | inactive | 297 |
| COc1ccc(CC2c3cc(OC)c(OC)cc3CCN2CC(=O)N2CCCC(c3ccccc3)C2)cc1OC (stereo unspecified) | – | 3530 | – | 2.6 |
| CCCCCC(=O)Nc1ccc(CNC(=O)CN2CCc3cc(OC)c(OC)cc3C2Cc2ccc(OC)c(OC)c2)cc1 (stereo unspecified) | – | > 10000 | – | – |
| COc1ccc(CC2c3cc(OCC4CCCCC4)c(OC)cc3CCN2CC(=O)NCc2ccccc2)cc1OC (stereo unspecified) | < 30 | > 10000 | – | – |
| COc1ccc(CC2c3cc(OC)c(OC)cc3CCN2CC(=O)N(C)Cc2ccccc2)cc1OC (stereo unspecified) | – | 2090 | – | – |
| COc1ccc(CC2c3cc(OC)c(OC)cc3CCN2CC(=O)Nc2cccc3ccccc23)cc1OC (stereo unspecified) | < 30 | 732 | inactive | – |
| COc1ccc(CC2c3cc(OC)c(OC)cc3CCN2CC(=O)NCc2ccc(N(C)C)cc2)cc1OC (stereo unspecified) | – | 3230 | – | – |
| COc1ccc(CC2c3cc(OC)c(OC)cc3CCN2CC(=O)N2CCN(c3ccccc3)CC2)cc1OC (stereo unspecified) | < 30 | > 10000 | – | – |
| COc1ccc(CC2c3cc(OC)c(OC)cc3CCN2CC(=O)NCc2ccncc2)cc1OC (stereo unspecified) | < 30 | 1010 | – | – |
| CCCOc1cc2c(cc1OC)CCN(CC(=O)NCc1ccccn1)C2Cc1ccc(OC)c(OC)c1 (stereo unspecified) | – | 20.6 | inactive | – |
| COc1ccc(CC2c3cc(OCc4ccccn4)c(OC)cc3CCN2CC(=O)NCc2ccccc2)cc1OC (stereo unspecified) | < 30 | 101 | inactive | – |
| COc1ccc(CC2c3cc(OC)c(OC)cc3CCN2CC(=O)NCCc2ccccc2)cc1OC (stereo unspecified) | < 30 | 3250 | – | – |
| COc1ccc(CC2c3cc(OC)c(OC)cc3CCN2CC(=O)NCc2cccnc2)cc1OC (stereo unspecified) | – | 152 | inactive | – |
| CCCC(=O)Oc1cc2c(cc1OC)CCN(CC(=O)NCc1ccccc1)C2Cc1ccc(OC)c(OC)c1 (stereo unspecified) | – | 78.5 | inactive | – |
| COC(=O)CNC(=O)CN1CCc2cc(OC)c(OC)cc2C1Cc1ccc(OC)c(OC)c1 (stereo unspecified) | < 30 | 6630 | – | – |
| COc1ccc(CC2c3cc(OCCCCN(C)C)c(OC)cc3CCN2CC(=O)NCc2ccccc2)cc1OC (stereo unspecified) | < 30 | 5740 | – | – |
| COc1ccc(CC2c3cc(OCc4cccnc4)c(OC)cc3CCN2CC(=O)NCc2ccccc2)cc1OC (stereo unspecified) | < 30 | 277 | inactive | – |
| COc1ccc(CC2c3cc(OC)c(OC)cc3CCN2CC(=O)NCc2ccc(NC(C)=O)cc2)cc1OC (stereo unspecified) | < 30 | > 10000 | – | – |
| COc1ccc(CC2c3cc(OC)c(OC)cc3CCN2CC(=O)NCCCN(C)C)cc1OC (stereo unspecified) | < 30 | > 10000 | – | – |
| COc1ccc(CC2c3cc(OS(=O)(=O)C(F)(F)F)c(OC)cc3CCN2CC(=O)NCc2ccccc2)cc1OC (stereo unspecified) | – | 10 | inactive | – |
| CCCCCCNC(=O)Nc1ccc(CNC(=O)CN2CCc3cc(OC)c(OC)cc3C2Cc2ccc(OC)c(OC)c2)cc1 (stereo unspecified) | – | 3680 | – | 0.7 |
| CCCOc1cc2c(cc1OC)CCN(CC(=O)NCc1ccccc1)C2Cc1ccc(OC)c(OC)c1 (stereo unspecified) | – | 17.3 | inactive | – |
| COc1ccc(CC2c3cc(OC)c(OC)cc3CCN2CC(=O)Nc2cc(C)nc3ccccc23)cc1OC (stereo unspecified) | < 30 | 4510 | – | – |
